Data taken from patent US8575145B2, “Triazolopyridine compounds as PIM kinase inhibitors” (Array BioPharma Inc., priority 2008, dated 2013).
Where a name gives a salt, the structure may show the parent alone.

Experiments:
[1] = system: C57BL/6J mice immunized with hen egg lysozyme; assay: B Cell in vivo Functional Assay (HEL-specific antibody isotypes); design: species or system mouse; conditions: 200 mg/kg oral once a day, Day 21, vs vehicle
Procedure: To determine the effect of a compound of Formula I on B cell responses, the following experiment was conducted. On Day O, C57BL/6J mice (Jackson Laboratories #000664, 6-8 weeks of age) were immunized at the base of the tail with 20 μg of hen egg lysozyme (HEL; Sigma #L7773) with complete Freund's adjuvant (CFA; Sigma #F5881). Mice were re-immunized on day 7 with 20 μg HEL in alum (Pierce catalog #77161). Starting on Day 0 and continuing through Day 28, mice were dosed once a day by oral administration with vehicle (water) or the compound of Example 26 (200 mg/kg). Serum was collected on days 0, 7, 14, 21, and 28 and analyzed for HEL-specific total IgG, IgG1, IgG2a, IgG2b, and IgG3 antibody production by capture ELISA (antibodies purchased from Invitrogen, catalog #M30007, #M32107, #M32307, #M32507, #M32607). ELISA plates were quantitated using Molecular Devices Versamax reader at […]. The group mean titer of each antibody analyte was converted to percent of vehicle control (=100%).

MRL/MpJ-Fas<lpr> mice = assay: MRL/lpr Lupus Model; assay type: in vivo, mouse; conditions: 200 mg/kg twice daily
Excerpt: MRL/lpr is considered to be an animal model of systemic lupus erythematosus (SLE), an autoimmune disease (Cohen and Maldonado 2003, Current Protocols in Immunology Chapter 15, Unit 15.20). MRL/lpr mice have a defect in the apoptosis of activated lymphocytes and over time develop a spontaneous and severe lymphoproliferative disorder characterized by enlarged lymphoid organs, auto-antibody production and kidney disease resulting in proteinuria. […] To determine the effect of compounds of Formula I in this model of SLE, the following experiment was conducted.
MRL/MpJ-Fasand age-matched MRL/MpJ control mice (Jackson Laboratories, catalog #000485 and #000486, respectively) were treated once daily with vehicle (1% CMC/0.5% Tween 80) or twice daily with the compound of Example 26 (200 mg/kg) for 10 weeks. Body weights, lymphadenopathy and urine protein levels were monitored weekly. Urine protein levels were determined with Bayer Albustix dipsticks (Bayer catalog #2191) and scored according to the following scale:
Serum levels of anti-ds-DNA antibody were measured by ELISA (Alpha Diagnostic, catalog #5120) on Day 28 and upon study termination. ELISA plates were quantitated using a Molecular Devices Versamax plate reader at […] and titers calculated relative using to a standard curve using a 4-parameter curve fit with Softmax Pro software.

[2] = system: C57BL/6 recipient mice, adoptive transfer EAE model; assay: Adoptive Transfer Experimental Autoimmune Encephalomyelitis; assay type: in vivo, mouse; conditions: 200 mg/kg oral gavage twice daily for 26 days
Procedure: Having observed that compounds of Formula I inhibit T cell activation in vitro and in vivo, the effect of a compound of Formula I on an autoimmune disease induced by T cells was determined using an adoptive transfer EAE model, an animal model of human multiple sclerosis (Brain (2006), 129, 1953-1971). This model relies on the injection of T cells from animals with EAE into disease-free host animals. This injection of cells is known to those skilled in the art as adoptive transfer. By injecting the animals with activated, encephalogenic T cells, this model is focused on the pathogenic stage of EAE autoimmune disease. On Day-14, C57BL/6 mice (Taconic Farms; 10 weeks old) were immunized with a disease-causing protein, MOG(35-55) peptide in complete Freund's adjuvant (Hooke Laboratories, catalog #EK-0113). On Day -3, spleens were harvested, single cell suspensions were prepared and then 5,000,000 cells/mL were stimulated with 20 μg/mL MOG(33-55) peptide (Open Biosystems), 30 ng/mL IL-12 (R&D Systems catalog #419-ML-010), 10 μg/mL anti-IFNγ antibody (BD Biosciences catalog #554408) at 37° C., 5% CO2. On Day 0, 1,500,000 of these cells were injected intravenously into the tail veins of C57BL/6 recipient mice. […] The recipient mice were scored daily days 0 through 26 using the following clinical scoring system: […]

**Q.** `F[C@@H]1CNCCC1Oc1cccc2ccc(-c3nnc4ccccn34)nc12` (stereo in doubt) [Example 26, 2-([1,2,4]triazolo[4,3-a]pyridin-3-yl)-8-((cis)-3-fluoropiperidin-4-yloxy)quinoline dihydrochloride] was tested. Which “HEL-specific IgG2a titer” value [1] did it give?
**A.** The value was “decreased”.

**Q.** And the “HEL-specific IgG2b titer” value [1]?
**A.** The value was “decreased”.

**Q.** What about the “HEL-specific IgG3 titer” value [1] of the same compound?
**A.** Its value is “decreased”.

**Q.** What about the proteinuria over time (MRL/MpJ-Fas<lpr> mice; 10 weeks, relative to vehicle control) of the same compound?
**A.** Its proteinuria over time is “prevents the development of proteinuria”.

**Q.** And the “decrease in serum anti-dsDNA relative to vehicle control” value (MRL/MpJ-Fas<lpr> mice; 28 days)?
**A.** The value was 74%.

**Q.** What about the “decrease in serum anti-dsDNA antibodies relative to vehicle control” value (MRL/MpJ-Fas<lpr> mice; study termination (79 days of dosing)) of the same compound?
**A.** Its value is 99%.

**Q.** And the “disease onset (first of 2 consecutive days with clinical score >= 1)” value [2]?
**A.** The value was “significant delay in disease onset”.

**Q.** What about the “median day of onset” value ([2]; untreated and vehicle groups day 6) of the same compound?
**A.** The value was 11 days.
